Measured values: ChEMBL document CHEMBL3885861, “Open TG-GATES”

Organism: Rattus norvegicus
Test: Open TG-GATES - Regimen: Single
Format: toxicity, organism-based, Sprague-Dawley
Design: regimen Single, gender Male, age 6 weeks
Details: in vivo, po, 0 mg/kg, route gavage, dose level Control; for APTT / Bas / Eos / Fbg / Hb / Ht / Lym / MCH / MCHC / MCV / Mono / Neu / PT / Plat / RBC / Ret / WBC: tissue Blood; for KIDNEY_L / KIDNEY_R / KIDNEY_TOTAL: tissue Kidney; for LIVER: tissue Liver; for A/G / ALP / ALT / AST / BUN / CRE / Ca / Cl / DBIL / GLC / IP / K / LDH / Na / PL / RALB / TBIL / TC / TG / TP / gamma-GTP: tissue Plasma

SMILES: C[C@H]1O[C@H](O[C@H]2[C@H](O)[C@@H](O)[C@@H](O[C@H]3[C@H](O)[C@@H](O)C(O)O[C@@H]3CO)O[C@@H]2CO)[C@H](O)[C@@H](O)[C@@H]1N[C@H]1C=C(CO)[C@@H](O)[C@H](O)[C@H]1O (some centres not stated) [ACARBOSE]
- TERMINAL_BW (3 h): 196.9 g
- APTT (3 h): 16.9 s
- Bas (3 h): 0.2%
- Eos (3 h): 0.8%
- Fbg (3 h): 275 mg/dL
- Hb (3 h): 13.4 g/dL
- Ht (3 h): 41.3%
- Lym (3 h): 78.6%
- MCH (3 h): 20.8 pg
- MCHC (3 h): 32.6%
- MCV (3 h): 63.7 fL
- Mono (3 h): 2.6%
- Neu (3 h): 16.8%
- PT (3 h): 13.6 s
- Plat (3 h): 116.5 x10_4/uL
- RBC (3 h): 647.8 x10_4/ul
- Ret (3 h): 8.1%
- WBC (3 h): 97.1 x10_2/uL
- KIDNEY_L (3 h): 0.9 g
- KIDNEY_R (3 h): 0.9 g
- KIDNEY_TOTAL (3 h): 1.8 g
- LIVER (3 h): 8.8 g
- A/G (3 h): 0.9
- ALP (3 h): 1499.8 IU/L
- ALT (3 h): 36 IU/L
- AST (3 h): 72.6 IU/L
- BUN (3 h): 10.4 mg/dL
- CRE (3 h): 0.2 mg/dL
- Ca (3 h): 10.7 mg/dL
- Cl (3 h): 105.2 meq/L
- DBIL (3 h): 0.006 mg/dL
- GLC (3 h): 174.6 mg/dL
- IP (3 h): 9.5 mg/dL
- K (3 h): 4 meq/L
- LDH (3 h): 58.2 IU/L
- Na (3 h): 141.4 meq/L
- PL (3 h): 133 mg/dL
- RALB (3 h): 2.5 g/dL
- TBIL (3 h): 0.06 mg/dL
- TC (3 h): 73.6 mg/dL
- TG (3 h): 46.8 mg/dL
- TP (3 h): 5.2 g/dL
- gamma-GTP (3 h): 1 IU/L
- TERMINAL_BW (6 h): 197.1 g
- APTT (6 h): 17.2 s
- Bas (6 h): 0.2%
- Eos (6 h): 0.6%
- Fbg (6 h): 286 mg/dL
- Hb (6 h): 13.2 g/dL
- Ht (6 h): 40.8%
- Lym (6 h): 73.6%
- MCH (6 h): 21 pg
- MCHC (6 h): 32.3%
- MCV (6 h): 64.9 fL
- Mono (6 h): 2.6%
- Neu (6 h): 22.4%
- PT (6 h): 13.7 s
- Plat (6 h): 125.4 x10_4/uL
- RBC (6 h): 629.8 x10_4/ul
- Ret (6 h): 8.4%
- WBC (6 h): 74.2 x10_2/uL
- KIDNEY_L (6 h): 0.9 g
- KIDNEY_R (6 h): 0.9 g
- KIDNEY_TOTAL (6 h): 1.9 g
- LIVER (6 h): 8.2 g
- A/G (6 h): 0.9
- ALP (6 h): 1467.2 IU/L
- ALT (6 h): 35.2 IU/L
- AST (6 h): 72.2 IU/L
- BUN (6 h): 8.8 mg/dL
- CRE (6 h): 0.2 mg/dL
- Ca (6 h): 10.5 mg/dL
- Cl (6 h): 104.6 meq/L
- DBIL (6 h): 0.004 mg/dL
- GLC (6 h): 166 mg/dL
- IP (6 h): 10.4 mg/dL
- K (6 h): 3.7 meq/L
- LDH (6 h): 65 IU/L
- Na (6 h): 141.6 meq/L
- PL (6 h): 136.8 mg/dL
- RALB (6 h): 2.5 g/dL
- TBIL (6 h): 0.064 mg/dL
- TC (6 h): 73.4 mg/dL
- TG (6 h): 72.4 mg/dL
- TP (6 h): 5.2 g/dL
- gamma-GTP (6 h): 1.4 IU/L
- TERMINAL_BW (9 h): 198.4 g
- APTT (9 h): 18.3 s
- Bas (9 h): 0%
- Eos (9 h): 0.8%
- Fbg (9 h): 306.6 mg/dL
- Hb (9 h): 13.2 g/dL
- Ht (9 h): 40.7%
- Lym (9 h): 75.2%
- MCH (9 h): 20.9 pg
- MCHC (9 h): 32.3%
- MCV (9 h): 64.8 fL
- Mono (9 h): 1.8%
- Neu (9 h): 21%
- PT (9 h): 13.6 s
- Plat (9 h): 122.9 x10_4/uL
- RBC (9 h): 629.4 x10_4/ul
- Ret (9 h): 8.4%
- WBC (9 h): 90.2 x10_2/uL
- KIDNEY_L (9 h): 0.9 g
- KIDNEY_R (9 h): 0.9 g
- KIDNEY_TOTAL (9 h): 1.8 g
- LIVER (9 h): 8.1 g
- A/G (9 h): 0.9
- ALP (9 h): 1467.6 IU/L
- ALT (9 h): 35.2 IU/L
- AST (9 h): 69.4 IU/L
- BUN (9 h): 8.6 mg/dL
- CRE (9 h): 0.2 mg/dL
- Ca (9 h): 10.4 mg/dL
- Cl (9 h): 104.2 meq/L
- DBIL (9 h): 0.006 mg/dL
- GLC (9 h): 177.8 mg/dL
- IP (9 h): 10.2 mg/dL
- K (9 h): 3.9 meq/L
- LDH (9 h): 63.8 IU/L
- Na (9 h): 140.8 meq/L
- PL (9 h): 133.6 mg/dL
- RALB (9 h): 2.5 g/dL
- TBIL (9 h): 0.06 mg/dL
- TC (9 h): 73.6 mg/dL
- TG (9 h): 52.4 mg/dL
- TP (9 h): 5.2 g/dL
- gamma-GTP (9 h): 1.2 IU/L
- TERMINAL_BW (24 h): 211.4 g
- APTT (24 h): 19.4 s
- Bas (24 h): 0%
- Eos (24 h): 1%
- Fbg (24 h): 269.6 mg/dL
- Hb (24 h): 13.2 g/dL
- Ht (24 h): 40.1%
- Lym (24 h): 73.6%
- MCH (24 h): 20.7 pg
- MCHC (24 h): 32.8%
- MCV (24 h): 63 fL
- Mono (24 h): 3.2%
- Neu (24 h): 21.4%
- PT (24 h): 13.1 s
- Plat (24 h): 113.4 x10_4/uL
- RBC (24 h): 636.6 x10_4/ul
- Ret (24 h): 7.9%
- WBC (24 h): 81.7 x10_2/uL
- KIDNEY_L (24 h): 1 g
- KIDNEY_R (24 h): 0.9 g
- KIDNEY_TOTAL (24 h): 1.9 g
- LIVER (24 h): 9.8 g
- A/G (24 h): 0.9
- ALP (24 h): 1381.8 IU/L
- ALT (24 h): 42.2 IU/L
- AST (24 h): 71.6 IU/L
- BUN (24 h): 14.2 mg/dL
- CRE (24 h): 0.2 mg/dL
- Ca (24 h): 10.7 mg/dL
- Cl (24 h): 103.8 meq/L
- DBIL (24 h): 0.006 mg/dL
- GLC (24 h): 175.8 mg/dL
- IP (24 h): 8.3 mg/dL
- K (24 h): 3.9 meq/L
- LDH (24 h): 60.8 IU/L
- Na (24 h): 141.4 meq/L
- PL (24 h): 139.8 mg/dL
- RALB (24 h): 2.5 g/dL
- TBIL (24 h): 0.062 mg/dL
- TC (24 h): 78 mg/dL
- TG (24 h): 59.2 mg/dL
- TP (24 h): 5.3 g/dL
- gamma-GTP (24 h): 1 IU/L
